Activity calls are given as the source filed them. No cut-off for these calls is given here.
Columns and labels:
[1] = target: Dual specificity tyrosine-phosphorylation-regulated kinase 1B (Homo sapiens) (UniProt Q9Y463); experiment: Inhibition of human DYRK1B at 1 uM using RRRFRPASPLRGPPK as substrate in presence of [gamma33P]-ATP by HotSpot assay relative to control
[2] = target: Serine/threonine-protein kinase SIK2 (Homo sapiens, UniProt Q9H0K1); experiment: Inhibition of human SIK2 using AMARAASAAALARRR as substrate in presence of [gamma33P]-ATP by HotSpot assay
[3] = target: Tyrosine-protein kinase ABL2 (Homo sapiens) (UniProt P42684); experiment: Inhibition of human ABL2 at 1 uM using EAIYAAPFAKKK as substrate in presence of [gamma33P]-ATP by HotSpot assay relative to control
[4] = target: Casein kinase I isoform gamma-2 (Homo sapiens) (UniProt P78368); experiment: Inhibition of human CSNK1G2 at 1 uM using KRRRAL[pS]VASLPGL as substrate in presence of [gamma33P]-ATP by HotSpot assay relative to control
[5] = target: Casein kinase I isoform epsilon (Homo sapiens) (UniProt P49674); experiment: Inhibition of human CK1epsilon at 1 uM using KRRRAL[pS]VASLPGL as substrate in presence of [gamma33P]-ATP by HotSpot assay relative to control
[6] = target: RAC-gamma serine/threonine-protein kinase (Homo sapiens) (UniProt Q9Y243); experiment: Inhibition of human AKT3 at 1 uM using KGSGSGRPRTSSFAEG as substrate in presence of [gamma33P]-ATP by HotSpot assay relative to control
[7] = target: Serine/threonine-protein kinase PAK 2 (Homo sapiens) (UniProt Q13177); experiment: Inhibition of human PAK2 at 1 uM using RRRLSFAEPG as substrate in presence of [gamma33P]-ATP by HotSpot assay relative to control
[8] = target: Mitogen-activated protein kinase 14 (Homo sapiens) (UniProt Q16539); experiment: Inhibition of human P38alpha T106M mutant at 1 uM using poly (Glu, Tyr)4:1 as substrate in presence of [gamma33P]-ATP by HotSpot assay relative to control
[9] = target: Mitogen-activated protein kinase 8 (Homo sapiens) (UniProt P45983); experiment: Inhibition of human JNK1a1 at 1 uM using ATF2 as substrate in presence of [gamma33P]-ATP by HotSpot assay relative to control
[10] = system: Platelet-derived growth factor receptor alpha (Homo sapiens), P16234 [D842V]; experiment: Inhibition of human PDGFRalpha D842V mutant at 1 uM using poly (Glu, Tyr)4:1 as substrate in presence of [gamma33P]-ATP by HotSpot assay relative to control
[11] = target: G protein-coupled receptor kinase 5 (Homo sapiens) (UniProt P34947); experiment: Inhibition of human GRK5 at 1 uM using casein as substrate in presence of [gamma33P]-ATP by HotSpot assay relative to control
[12] = target: Aurora kinase C (Homo sapiens, UniProt Q9UQB9); experiment: Inhibition of human AURKC using H-LRRASLG as substrate in presence of [gamma33P]-ATP by HotSpot assay
[13] = target: Maternal embryonic leucine zipper kinase (Homo sapiens, UniProt Q14680); experiment: Inhibition of human MELK using KKLNRTLSFAEPG as substrate in presence of [gamma33P]-ATP by HotSpot assay
[14] = target: Interleukin-1 receptor-associated kinase 4 (Homo sapiens) (UniProt Q9NWZ3); experiment: Inhibition of human IRAK4 at 1 uM using modified-CGRTGRRNSI-NH2 as substrate in presence of [gamma33P]-ATP by HotSpot assay relative to control
[15] = target: Serine/threonine-protein kinase 24 (Homo sapiens) (UniProt Q9Y6E0); experiment: Inhibition of human STK24 at 1 uM using MBP as substrate in presence of [gamma33P]-ATP by HotSpot assay relative to control
[16] = target: RAC-beta serine/threonine-protein kinase (Homo sapiens) (UniProt P31751); experiment: Inhibition of human AKT2 at 1 uM using KGSGSGRPRTSSFAEG as substrate in presence of [gamma33P]-ATP by HotSpot assay relative to control
[17] = system: Epidermal growth factor receptor (Homo sapiens), P00533 [UNDEFINED MUTATION]; conditions: BaF3, time 72.0 hrs
[18] = system: EML4-ALK (Homo sapiens), Q9UM73+Q9HC35 [L1152P]; conditions: BaF3, time 3-5 weeks
[19] = target: Serine/threonine-protein kinase Sgk2 (Homo sapiens) (UniProt Q9HBY8); experiment: Inhibition of human SGK2 at 1 uM using KGSGSGRPRTSSFAEG as substrate in presence of [gamma33P]-ATP by HotSpot assay relative to control
[20] = target: Cytoplasmic tyrosine-protein kinase BMX (Homo sapiens) (UniProt P51813); experiment: Inhibition of human BMX at 1 uM using poly (Glu, Tyr)4:1 as substrate in presence of [gamma33P]-ATP by HotSpot assay relative to control
[21] = target: cAMP-dependent protein kinase catalytic subunit PRKX (Homo sapiens) (UniProt P51817); experiment: Inhibition of human PRKX at 1 uM using LRRASLG as substrate in presence of [gamma33P]-ATP by HotSpot assay relative to control
[22] = target: Receptor-interacting serine/threonine-protein kinase 2 (Homo sapiens) (UniProt O43353); experiment: Inhibition of human RIPK2 at 1 uM using MBP as substrate in presence of [gamma33P]-ATP by HotSpot assay relative to control
[23] = system: EML4-ALK (Homo sapiens), Q9UM73+Q9HC35 [L1198F]; conditions: BaF3, time 3-5 weeks
[24] = system: EML4-ALK (Homo sapiens), Q9UM73+Q9HC35 [I1171N]; conditions: BaF3, dose 750.0 nmol/L, time 3-5 weeks
[25] = target: Dual specificity protein kinase CLK3 (Homo sapiens) (UniProt P49761); experiment: Inhibition of human CLK3 at 1 uM using MBP as substrate in presence of [gamma33P]-ATP by HotSpot assay relative to control
[26] = target: Ribosomal protein S6 kinase alpha-5 (Homo sapiens) (UniProt O75582); experiment: Inhibition of human RPS6KA5 at 1 uM using GRPRTSSFAEG as substrate in presence of [gamma33P]-ATP by HotSpot assay relative to control
[27] = system: Epidermal growth factor receptor (Homo sapiens), P00533 [UNDEFINED MUTATION]; conditions: BaF3, time 72.0 hrs; remark: listed apart in the source
[28] = target: Protein kinase C iota type (Homo sapiens) (UniProt P41743); experiment: Inhibition of human PRKCI at 1 uM using ERMRPRKRQGSVRRRV as substrate in presence of [gamma33P]-ATP by HotSpot assay relative to control
Protein kinase C iota type (Homo sapiens), sequence (P41743 whole entry): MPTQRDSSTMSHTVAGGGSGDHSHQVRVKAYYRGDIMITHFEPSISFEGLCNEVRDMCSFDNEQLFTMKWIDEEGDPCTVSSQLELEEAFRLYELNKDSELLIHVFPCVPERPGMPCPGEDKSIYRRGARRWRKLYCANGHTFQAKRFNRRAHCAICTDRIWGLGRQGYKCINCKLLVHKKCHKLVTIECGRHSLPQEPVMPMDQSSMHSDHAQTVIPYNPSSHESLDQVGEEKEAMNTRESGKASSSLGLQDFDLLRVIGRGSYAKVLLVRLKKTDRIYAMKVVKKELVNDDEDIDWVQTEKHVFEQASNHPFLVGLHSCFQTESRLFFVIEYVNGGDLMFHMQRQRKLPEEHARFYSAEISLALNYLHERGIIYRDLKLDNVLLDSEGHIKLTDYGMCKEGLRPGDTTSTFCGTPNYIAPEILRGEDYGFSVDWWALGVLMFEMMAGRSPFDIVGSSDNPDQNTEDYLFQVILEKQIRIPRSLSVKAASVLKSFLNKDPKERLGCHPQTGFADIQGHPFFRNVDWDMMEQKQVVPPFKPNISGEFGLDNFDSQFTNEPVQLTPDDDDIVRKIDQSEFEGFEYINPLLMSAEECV

Epidermal growth factor receptor (Homo sapiens), P00533 [UNDEFINED MUTATION], sequence (P00533 whole entry, looked up, stated change not applied): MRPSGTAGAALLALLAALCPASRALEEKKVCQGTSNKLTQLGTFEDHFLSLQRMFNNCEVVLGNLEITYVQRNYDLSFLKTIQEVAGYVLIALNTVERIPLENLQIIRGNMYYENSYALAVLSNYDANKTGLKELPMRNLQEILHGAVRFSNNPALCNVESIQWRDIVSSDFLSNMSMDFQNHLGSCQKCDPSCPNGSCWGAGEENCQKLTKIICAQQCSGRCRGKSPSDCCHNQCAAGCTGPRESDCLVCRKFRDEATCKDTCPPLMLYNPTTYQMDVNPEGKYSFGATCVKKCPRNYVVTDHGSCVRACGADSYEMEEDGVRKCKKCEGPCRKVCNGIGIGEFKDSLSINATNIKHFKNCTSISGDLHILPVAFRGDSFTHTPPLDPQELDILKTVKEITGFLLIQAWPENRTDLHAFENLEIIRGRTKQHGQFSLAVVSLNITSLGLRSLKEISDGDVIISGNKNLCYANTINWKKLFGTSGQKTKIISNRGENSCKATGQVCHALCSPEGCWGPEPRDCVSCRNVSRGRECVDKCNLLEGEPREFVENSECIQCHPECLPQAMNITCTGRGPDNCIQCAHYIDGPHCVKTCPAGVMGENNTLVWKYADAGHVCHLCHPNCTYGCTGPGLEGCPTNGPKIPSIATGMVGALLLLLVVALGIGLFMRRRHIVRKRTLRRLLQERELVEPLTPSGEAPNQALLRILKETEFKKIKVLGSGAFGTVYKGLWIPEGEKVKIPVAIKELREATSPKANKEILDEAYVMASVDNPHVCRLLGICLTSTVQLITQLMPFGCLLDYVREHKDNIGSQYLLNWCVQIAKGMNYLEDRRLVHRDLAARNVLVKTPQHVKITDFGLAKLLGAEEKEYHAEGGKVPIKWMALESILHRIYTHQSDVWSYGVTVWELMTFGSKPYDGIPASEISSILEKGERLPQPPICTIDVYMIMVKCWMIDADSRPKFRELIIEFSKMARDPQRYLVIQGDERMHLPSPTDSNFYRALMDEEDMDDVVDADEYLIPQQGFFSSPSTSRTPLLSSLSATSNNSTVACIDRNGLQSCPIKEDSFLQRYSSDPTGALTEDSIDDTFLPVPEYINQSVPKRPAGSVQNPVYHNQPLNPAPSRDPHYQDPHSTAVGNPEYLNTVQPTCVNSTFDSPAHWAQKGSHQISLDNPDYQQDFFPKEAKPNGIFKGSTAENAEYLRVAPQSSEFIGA
Ribosomal protein S6 kinase alpha-5 (Homo sapiens), sequence (O75582 whole entry, looked up): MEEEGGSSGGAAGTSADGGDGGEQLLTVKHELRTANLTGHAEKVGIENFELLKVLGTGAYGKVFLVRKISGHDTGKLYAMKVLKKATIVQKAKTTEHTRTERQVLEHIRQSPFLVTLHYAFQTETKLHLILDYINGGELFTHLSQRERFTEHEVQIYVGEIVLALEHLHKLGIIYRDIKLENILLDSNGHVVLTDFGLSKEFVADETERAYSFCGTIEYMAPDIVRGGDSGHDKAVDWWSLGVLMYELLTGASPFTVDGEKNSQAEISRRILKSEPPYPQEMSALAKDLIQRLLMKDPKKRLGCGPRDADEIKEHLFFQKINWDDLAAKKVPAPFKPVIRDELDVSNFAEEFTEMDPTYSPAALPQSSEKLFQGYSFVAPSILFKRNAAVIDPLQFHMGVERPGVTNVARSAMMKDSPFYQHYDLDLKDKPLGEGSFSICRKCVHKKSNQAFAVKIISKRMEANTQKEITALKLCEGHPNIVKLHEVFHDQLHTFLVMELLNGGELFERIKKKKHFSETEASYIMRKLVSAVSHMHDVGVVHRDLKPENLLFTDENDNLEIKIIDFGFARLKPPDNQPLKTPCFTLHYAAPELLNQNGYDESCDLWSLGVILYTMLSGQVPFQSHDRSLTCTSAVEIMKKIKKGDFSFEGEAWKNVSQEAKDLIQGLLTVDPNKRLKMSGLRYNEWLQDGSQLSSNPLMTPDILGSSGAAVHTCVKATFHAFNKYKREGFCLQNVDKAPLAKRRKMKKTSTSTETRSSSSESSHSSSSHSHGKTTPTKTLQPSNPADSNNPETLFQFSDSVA
Interleukin-1 receptor-associated kinase 4 (Homo sapiens), sequence (Q9NWZ3 whole entry): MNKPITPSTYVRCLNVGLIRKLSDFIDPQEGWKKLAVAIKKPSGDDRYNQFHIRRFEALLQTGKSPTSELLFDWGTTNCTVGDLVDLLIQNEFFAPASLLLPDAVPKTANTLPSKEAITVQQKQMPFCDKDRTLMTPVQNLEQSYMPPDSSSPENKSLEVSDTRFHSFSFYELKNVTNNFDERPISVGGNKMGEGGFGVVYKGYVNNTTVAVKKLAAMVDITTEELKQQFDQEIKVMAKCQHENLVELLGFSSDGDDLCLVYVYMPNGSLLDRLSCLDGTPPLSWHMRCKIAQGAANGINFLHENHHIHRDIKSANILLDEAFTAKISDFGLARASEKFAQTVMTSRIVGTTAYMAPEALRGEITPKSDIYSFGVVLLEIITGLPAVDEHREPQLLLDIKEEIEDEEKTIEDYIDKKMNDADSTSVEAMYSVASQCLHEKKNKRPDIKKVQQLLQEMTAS
RAC-beta serine/threonine-protein kinase (Homo sapiens), sequence (P31751 whole entry): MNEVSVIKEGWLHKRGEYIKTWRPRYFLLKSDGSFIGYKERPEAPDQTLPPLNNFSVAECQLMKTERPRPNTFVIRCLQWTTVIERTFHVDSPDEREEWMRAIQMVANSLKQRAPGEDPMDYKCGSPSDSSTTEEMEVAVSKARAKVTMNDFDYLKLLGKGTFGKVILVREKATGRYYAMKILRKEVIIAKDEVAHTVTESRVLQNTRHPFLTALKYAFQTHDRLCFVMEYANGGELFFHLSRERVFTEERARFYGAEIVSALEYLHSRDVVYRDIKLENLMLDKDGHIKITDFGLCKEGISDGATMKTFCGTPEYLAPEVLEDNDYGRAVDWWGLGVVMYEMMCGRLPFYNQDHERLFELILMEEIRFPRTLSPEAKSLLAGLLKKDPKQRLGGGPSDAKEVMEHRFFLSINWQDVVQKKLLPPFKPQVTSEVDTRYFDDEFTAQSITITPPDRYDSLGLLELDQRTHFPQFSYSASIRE
Serine/threonine-protein kinase SIK2, sequence (Q9H0K1 whole entry): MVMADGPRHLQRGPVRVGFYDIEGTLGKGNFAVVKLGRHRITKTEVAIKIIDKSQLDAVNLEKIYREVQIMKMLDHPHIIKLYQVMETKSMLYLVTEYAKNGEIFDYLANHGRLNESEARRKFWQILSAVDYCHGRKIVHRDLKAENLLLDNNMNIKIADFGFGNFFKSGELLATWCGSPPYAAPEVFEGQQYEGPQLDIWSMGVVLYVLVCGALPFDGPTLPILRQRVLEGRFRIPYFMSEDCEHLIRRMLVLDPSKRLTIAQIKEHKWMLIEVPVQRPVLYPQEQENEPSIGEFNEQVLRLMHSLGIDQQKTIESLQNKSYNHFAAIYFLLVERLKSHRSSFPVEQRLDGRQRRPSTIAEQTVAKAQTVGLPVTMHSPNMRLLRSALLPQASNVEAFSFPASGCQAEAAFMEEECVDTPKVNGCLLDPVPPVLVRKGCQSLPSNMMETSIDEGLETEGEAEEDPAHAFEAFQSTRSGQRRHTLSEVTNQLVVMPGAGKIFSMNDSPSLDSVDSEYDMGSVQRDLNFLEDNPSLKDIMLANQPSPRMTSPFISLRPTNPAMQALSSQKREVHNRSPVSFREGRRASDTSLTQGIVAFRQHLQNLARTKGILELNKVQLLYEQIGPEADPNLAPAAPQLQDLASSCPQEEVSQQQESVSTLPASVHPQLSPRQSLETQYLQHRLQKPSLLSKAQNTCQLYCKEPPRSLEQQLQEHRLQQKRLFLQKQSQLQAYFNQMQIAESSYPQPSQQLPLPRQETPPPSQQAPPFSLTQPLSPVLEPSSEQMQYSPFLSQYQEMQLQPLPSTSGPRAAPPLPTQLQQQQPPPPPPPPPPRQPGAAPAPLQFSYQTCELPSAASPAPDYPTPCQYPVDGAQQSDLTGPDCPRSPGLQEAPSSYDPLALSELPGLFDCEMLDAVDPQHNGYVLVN
Mitogen-activated protein kinase 14 (Homo sapiens), sequence (Q16539 whole entry): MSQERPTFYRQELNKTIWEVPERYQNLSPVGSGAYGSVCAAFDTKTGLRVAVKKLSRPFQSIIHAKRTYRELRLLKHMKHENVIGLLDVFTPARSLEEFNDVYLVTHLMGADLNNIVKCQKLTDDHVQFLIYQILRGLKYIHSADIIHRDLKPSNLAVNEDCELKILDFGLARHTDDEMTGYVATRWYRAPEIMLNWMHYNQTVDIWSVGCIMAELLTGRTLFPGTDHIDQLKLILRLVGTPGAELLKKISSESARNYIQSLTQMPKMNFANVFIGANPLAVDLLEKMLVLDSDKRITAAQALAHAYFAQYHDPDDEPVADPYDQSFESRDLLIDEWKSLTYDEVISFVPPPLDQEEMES

Molecule `COc1cc(N2CCC(N3CCN(C)CC3)CC2)ccc1Nc1ncc(Cl)c(Nc2ccccc2P(C)(C)=O)n1` [BRIGATINIB] has an inhibition [1] of under 90%, an IC50 [2] of 466 nM and an inhibition [3] of under 90%. It also gave an inhibition [4] of under 90%, an inhibition [5] of under 90% and an inhibition [6] of under 90%. It also gave an inhibition [7] of under 90%, an inhibition [8] of under 90% and an inhibition [9] of under 90%. The inhibition [10] was under 90%, the inhibition [11] was under 90% and the IC50 [12] was over 1000 nM. It also gave an IC50 [13] of 895 nM, an inhibition [14] of under 90% and an inhibition [15] of under 90%. It also gave an inhibition [16] of under 90%, an IC90 [17] of 314 nM and an IC90 [18] of 94 nM. For the same molecule, the inhibition [19] was under 90%, the inhibition [20] was under 90% and the inhibition [21] was under 90%. For the same molecule, the inhibition [22] was under 90%, the IC90 [23] was 242 nM and the inhibition [24] was “Active”. For the same molecule, the inhibition [25] was under 90%, the inhibition [26] was under 90% and the IC90 [27] was 2460 nM. It also gave an inhibition [28] of under 90%.
